# Measurements: patent EP0771560A1, “Use of 2- N-(1,2-benzoisothiazolyl-3(2H)one-1,1-dioxide ethyl 5-ethoxycarbonyl-2,4,6-trimethyl-1,4-dihydropiridine-3-carboxylate in the treatment of vascular disorders” (LABORATORIOS ALTER, S.A., priority 1995, dated 1997)
# Where two headings read alike, the source gives them in different places.
# Columns and labels:
# A10 cells = experiment: Inhibition of smooth muscle cell proliferation induced by bovine fetal serum (DNA synthesis by inclusion of BrdU); format: cell-based, rat; settings: for inhibition at 50 µM / inhibition at 0.5 µM / inhibition at 5 µM: Rattus norvegicus; for % LABELED CELLS (Average ± S.D.): 10% bovine fetal serum, BrdU inclusion
# Protocol: In these experiments a rat aorta smooth muscle cell line obtained from American Type Culture Collection (ATCC;A10 CRL 1476) was used. The cells were grown in a humidified atmosphere (37^º C; 95% air - 5% CO2) in Dulbecco's Modified Eagle Medium (DMEM) containing 10 % bovine fetal serum supplemented with 20 mM L-glutamine, 100 IU/ml penicillin, 100 µg/ml streptomycin and 0.25 µg/ml Amphotericin B (antibiotic-antimycotic solution, Gibco). The medium was replaced every two days.
# To study the effect of PCA-4230 and of the other compounds, the DNA synthesis was measured by deterimining the inclusion of BrdU (an analogue of thymidine). The cells were isolated by trypsinization (trypsin 0.05% in EDTA 0.02%) and were seeded on glass cover-glasses in culture plates of 24 cups, at a density of 10^4 cells per cup. The cells were grown for 24 hours in DMEM with 10% BFS to allow adhesion of the cells to the slides. Afterwards, the cells were washed with serum-free DMEM containing 0.2% bovine serum albumin (BSA). They were incubated for 48 hours in the same medium to obtain quiescent cells. Afterwards, proliferation was induced by replacement of the medium by DMEM containing 10% bovine fetal serum, along with the vehicle or drugs at the suitable concentrations (0.5 to 50 µM for PCA-4230 and 50 µM for the rest of the compounds): The cells were grown in these conditions for 16 hours and, afterwards, BrdU was added and the culture was continued for two to three hours.
# smooth muscle cells = settings: from J. Bernhardt et al. (1993); cited from earlier work
# [1] = tested on: atheromatous smooth muscle cells (ASA); experiment: Intracellular communication: transference of Lucifer Yellow dye after microinjection, atheromatous cells; format: cell-based, human; settings: 0.4 µM (200 ng/ml for PCA-4230), incubated for 1 hour
# Text: (§1) Materials and Methods. Non-arteriosclerotic aorta smooth muscle cells (NASA), obtained from biopsies of organs to be used in heart transplants were used. The atheromatous smooth muscle cells (ASA) were obtained from biopsies obtained from arteriosclerotic arteries coming from aorta reconstruction. These biopsies were used as a source for cultures by explant, avoiding the use of enzymatic additives or detergents. The cells were left to grow until confluence, in M199 medium, supplemented with 5% BFS and antibiotics as in the previous example. The pureness of the cultures was determined by specific staining of the same with anti-α actin of smooth muscle cells.
# (§2) Intracellular communication was studied by evaluating the transference of the fluorescent dye Lucifer Yellow from a single cell, in which it is inserted by microinjection, to the surrounding cells. The extent of this transference of dye was determined in 40 normal cells and in 100 atheromatous cells.
# (§3) The same experiment was carried out with Verapamyl 0.4 µM, used as a standard drug with calcium antagonist activity and with 0.02% dimethylsulfoxide, the vehicle used in both cases.
# (§4) The same study was repeated with the vehicle and with Verapamyl.
# [2] = tested on: c-fos and c-jun proto-oncogenes; experiment: Expression of c-fos and c-jun proto-oncogenes (Northern hybridization of total RNA) in serum-stimulated cells; format: cell-based, rat; settings: 5x10^-5M; cells stimulated for 30 minutes with 10% FCS; result in words
# Protocol: The expression of the c-fos and c-jun proto-oncogenes was analyzed in cells fasted for 48h (cultured in serum-free DMEM, containing BSA 0.2%) and subsequently stimulated for 30 minutes with 10% FCS in the presence of absence of PCA-4230 (5x10^-5M). The total RNA was extracted from said cells using a previously described method (P Chomczynski and N. Sacchi (1987), Ann. Biochem. 162: 156-159).
# Immediately, the extracted RNA (10 µg) was resolved by eletrophoresis in agarose gel (1.2% agarose + formaldehyde + formamide). The gel was then transferred to a nylon membrane and this was hybridized with specific probes for c-fos and c-jun (previously labeled with [^32P]-deoxy CTP). The membrane was finally exposed to a sensitive film (Kodak X-OMAT) for 8-17 hours at -70^º C. The level of expression of the oncogenes was brought back to normal by using a specific probe for β-actin.
# [3] = tested on: Non-arteriosclerotic aorta smooth muscle cells (NASA); experiment: Intracellular communication: transference of Lucifer Yellow dye after microinjection, normal cells; format: cell-based, human; settings: NORMAL (HEALTHY) cells, 0.4 µM, incubated for 1 hour
# Text: as §1, §2, §3, §4
# [4] = Phase II Clinical Trial, Internal Report; result in words; cited from earlier work
# gap junctions = experiment: Freeze Fracture Electron Microscopy (FFEM) of gap junction morphology; format: cell-based, human; settings: cells treated with PCA-4230, result in words
# Text: Subsequently, the cells were fixed with glutaraldehyde and were studied by FFEM "Freeze Fracture Electron Microscopy" to determine the morphology of the gap junctions. The cells were frozen at -110^º C and were fractured. The breakage planes are the planes with less resistance that correspond to the surface of the inside membrane, between lipid bilayers.
# [5] = Table Ib, 50,0 µM/L, two experiments in triplicate
# [6] = Table Ib, 50,0 µM/L, versus vehicle
# [7] = A10, Table Ib, 50,0 µM/L, versus vehicle, read-out: % INHIBITIÓN
smiles,measurement,setting,value
"CC(=O)Oc1ccccc1C(=O)O [ASPIRIN, aspirin, reference compound]",inhibition at 50 µM,"A10 cells; A10, read-out: % INHIBITIÓN",25.5%
same,% LABELED CELLS (Average ± S.D.),A10 cells; [5],"22.2 ± 1,8%"
same,% INHIBITIÓN,A10 cells; [6],weak inhibitory effect
same,aspirin concentrations at which inhibition of the proliferation of smooth muscle cells is achieved,smooth muscle cells,higher than 270 µM
"Clc1ccccc1CN1CCc2sccc2C1 [THICLOPYD., Thiclopydine, reference compound]",inhibition at 50 µM,A10 cells; [7],17.1%
same,% LABELED CELLS (Average ± S.D.),A10 cells; [5],"24,7 ± 1,5%"
same,% INHIBITIÓN,A10 cells; [6],weak inhibitory effect
CCOC(=O)C1=C(C)NC(C)=C(C(=O)OCCN2C(=O)c3ccccc3S2(=O)=O)C1C (stereo not drawn) [PCA-4230],N° CELLS LABELED BY INJECTION,[1],2.42 ± 0.34
same,transcription of the c-fos and c-jun proto-oncogenes,[2],suppressive effect
same,cell proliferation induced by bovine fetal serum,"A10 cells; 0.5 to 50 µM, result in words",inhibited cell proliferation induced by bovine fetal serum proportionally to the concentration
same,inhibition at 0.5 µM,"A10 cells; A10, Table Ia, 0,5 µM/L, versus vehicle, read-out: % INHIBITIÓN",26.1%
same,inhibition at 5 µM,"A10 cells; A10, Table Ia, 5,0 µM/L, versus vehicle, read-out: % INHIBITIÓN",53.2%
same,inhibition at 50 µM,"A10 cells; A10, Table Ia, 50,0 µM/L, versus vehicle, read-out: % INHIBITIÓN",95.1%
same,inhibition at 0.5 µM,"A10 cells; A10, Table Ib, 0,5 µM/L, versus vehicle, read-out: % INHIBITIÓN",25%
same,inhibition at 5 µM,"A10 cells; A10, Table Ib, 5,0 µM/L, versus vehicle, read-out: % INHIBITIÓN",57.4%
same,inhibition at 50 µM,A10 cells; [7],87.9%
same,% LABELED CELLS (Average ± S.D.),"A10 cells; Table Ia, 0,5 µM/L, three experiments in triplicate","15,0 ± 2,3%"
same,% LABELED CELLS (Average ± S.D.),"A10 cells; Table Ia, 5,0 µM/L, three experiments in triplicate","9,5 ± 1,1%"
same,% LABELED CELLS (Average ± S.D.),"A10 cells; Table Ia, 50,0 µM/L, three experiments in triplicate","1,0 ± 0,6%"
same,% LABELED CELLS (Average ± S.D.),"A10 cells; Table Ib, 0,5 µM/L, two experiments in triplicate","22,3 ± 0,9%"
same,% LABELED CELLS (Average ± S.D.),"A10 cells; Table Ib, 5,0 µM/L, two experiments in triplicate","12,7 ± 1,4%"
same,% LABELED CELLS (Average ± S.D.),A10 cells; [5],"3,6 ± 0,3%"
same,N° CELLS LABELED BY INJECTION,[3],"2,40 ± 0,18"
same,hypolipidemic effect,[4],moderate hypolipidemic effect
same,"morphology, distribution and number of the gap junctions",gap junctions,No differences were observed
"COc1ccc(CCN(C)CCCC(C#N)(c2ccc(OC)c(OC)c2)C(C)C)cc1OC (stereo not drawn) [VERAPAMYL, Verapamyl, reference compound]",N° CELLS LABELED BY INJECTION,[1],"7,20 ± 0,54"
same,N° CELLS LABELED BY INJECTION,[1]; listed as Verapamyl,did not show any significant effects
